Measurements: patent US20260286316A1, “METHOD OF PRODUCTION OF MODIFIED PHAGE AND METHOD OF TREATMENT USING SAME” (priority 2022, published 2026)
Converted amounts (≈) assume the structure as drawn.

How the values were obtained:
[1] = system: S. aureus ATCC51650 and CI11 biofilms; experiment: Biofilm viability, AlamarBlue assay; type: cell-based, Staphylococcus aureus
Description: Briefly, a 1.0 McFarland unit S. aureus culture suspended in 1:15 dilution in TSB was added to 96-well microtiter plates (Costar; Corning Incorporated, Corning, NY, United States of America). Plates were incubated for 48 hours at 37° C. on a rotating platform at 70 rpm (3D Gyratory Mixer; Ratek Instruments, Boronia, VIC, Australia) to allow biofilm formation followed by washing with phosphate-buffered saline. […] Wells were treated for 24 hours at 37° C. with gentle shaking. The AlamarBlue viability assay (Thermo Fisher Scientific, Waltham, MA, United States of America) was used as previously described (Richter K et al., editors. Mind “De GaPP”: in vitro efficacy of deferiprone and gallium-protoporphyrin against Staphylococcus aureus biofilms. International Forum of Allergy & Rhinology; 2016: Wiley Online Library to determine the anti-biofilm activity of the phage. Fluorescence was measured in a microplate reader (FLUOstar OPTIMA, BMG LABTECH, Offenburg, Germany) and the percent reduction of biofilm after treatment determined relative to untreated controls.

[2] = system: phage non-sensitive S. aureus strains (C43, C330, C285 and C319); experiment: Phage and clindamycin combination treatment (OD600); type: cell-based, Staphylococcus aureus; conditions: ½ MIC clindamycin only or phage only (MOI=1), 24 hours
Description: FIG. 6 provides graphical results showing that the combination of S. aureus phage and ½ MIC clindamycin kills non-sensitive S. aureus strains: (A) S. aureus C43 treated with APTC-SA-2 and ½ MIC clindamycin; (B) S. aureus C330 treated with APTC-SA-2 and ½ MIC clindamycin; (C) S. aureus ATCC25923 treated with APTC-SA-2 and ½ MIC clindamycin; (D) S. aureus C285 treated with APTC-SA-12 and ½ MIC clindamycin; (E) S. aureus C319 treated with APTC-SA-12 and ½ MIC clindamycin; and (F) S. aureus ATCC25923 treated with APTC-SA-12 and ½ MIC clindamycin. Significance was determined compared to untreated control. Data expressed as mean±SEM for three independent experiments. ****, p<0.0001; ns, no significant. C=clindamycin;
A phage and clindamycin synergy assay was performed using 96 well plates. In brief, selected S. aureus strains (phage non-sensitive) were grown on 1.5% TSA at 37° C. overnight. A single colony was transferred to TSB to generate a culture with a starting concentration of 5×10^5 CFU/ml. Phages were added to the bacteria culture at a MOI of 1 according to phage titers. Clindamycin was added to the cultures at ½ MIC (according to the MIC assay result). Optical density (Gorski A et al., Antibiotics (Basel) 9 (11), 2020) readings at 600 nm were recorded after 24 hours.

[3] = system: S. aureus ATCC51650 and CI11; experiment: Dose-dependence of clindamycin in combination with phage J-Sa36 (OD600); type: cell-based, Staphylococcus aureus; conditions: with J-Sa36 MOI=0.2, 24 hours; ⅛th the MIC
Description: (§1) Initial screening was performed in 100 μl in 96 well plates, with follow up experiments in 10 mL culture volume. S. aureus strains were grown on 1.5% Tryptone Soya Agar (TSA) at 37° C. overnight. Single colonies were transferred to Tryptone Soya Broth (TSB) to generate a culture with a starting concentration of 5×10^5 CFU/ml. […] Antibiotics were added to the cultures at ½ MIC (according to the pretest MIC of antibiotics) if required. Optical density (OD) readings at 600 nm were recorded at 24 hours to assess the growth of bacteria co-inoculated with phage unless otherwise specified. Uninoculated, fresh media was included as a sterility control.

S. aureus C285 = experiment: Clindamycin MIC assay (Example 2); type: cell-based; conditions: Staphylococcus aureus; strain C285
Description: (§2) The MIC of clindamycin against the S. aureus strains was assessed using the broth microdilution technique as previously described (see Wiegand et al., 2008 supra). Results were interpreted as follows: Sensitive: ≤0.2 μg/mL; Intermediate: 0.4 μg/ml; Resistant: >0.6 μg/mL. The S. aureus strains sensitive to clindamycin were selected for further tests. The MIC was performed three times.

S. aureus ATCC25923 = experiment: Clindamycin MIC assay (Example 2); type: cell-based; conditions: Staphylococcus aureus; strain ATCC25923
Description: as §2

S. aureus C330 = experiment: Clindamycin MIC assay (Example 2); type: cell-based; conditions: Staphylococcus aureus; strain C330
Description: as §2

S. aureus C43 = experiment: Clindamycin MIC assay (Example 2); type: cell-based; conditions: Staphylococcus aureus; strain C43
Description: as §2

S. aureus C319 = experiment: Clindamycin MIC assay (Example 2); type: cell-based; conditions: Staphylococcus aureus; strain C319
Description: as §2

S. aureus CI3 = experiment: Phage combined with ½ MIC antibiotics on planktonic S. aureus (OD600), CI3; type: cell-based, Staphylococcus aureus; conditions: ½ MIC antibiotic, phage MOI=0.2, 24 hours
Description: as §1

S. aureus ATCC51650 [4] = experiment: Clindamycin MIC, broth microdilution; type: cell-based; conditions: Staphylococcus aureus
Description: (§3) The minimum inhibitory concentration (MIC) of amoxicillin, vancomycin, erythromycin, clindamycin and azithromycin against the S. aureus strains was assessed using the broth microdilution technique as previously described (Wiegand I et al., Nature protocols 3 (2): 163-175, 2008) and breakpoints defined according to CSLI guidelines. Clinical strains resistant to at least one antibiotic in three or more antibiotic categories were defined as multidrug resistant (MDR).

S. aureus CI11 [5] = experiment: Clindamycin MIC, broth microdilution; type: cell-based; conditions: Staphylococcus aureus
Description: as §3

S. aureus CI8 = experiment: Phage replication by titer; type: cell-based, Staphylococcus aureus; conditions: 48 hours incubation
Description: (§4) Phage titers were determined against S. aureus RN4220 (ATCC) using the double layer spot assay technique. Briefly, 100 μl of a S. aureus overnight culture was mixed with 4 mL of 0.4% TSA and poured onto a 1.5% TSA plate. […] After the plates were incubated in a humidified incubator at 37° C. overnight, plaques were counted, counts were averaged, and titers of the filtrate were calculated based on the dilution.
(§5) A 100 μl sample was taken from an S. aureus culture (10 ml in TSB) after 0 and 48 hours following treatment with clindamycin, phage or a phage clindamycin co-incubation. The sample was treated with 25 μl of chloroform, shaken for 30 seconds, centrifuged (3000 rpm, 5 minutes, room temperature) and the supernatant used to determine phage titers against the same isolate. Phage titers in plaque forming units [PFU]/mL were recorded initially and at 48 hours to assess for phage replication. To allow for phage resistant (phage insensitive) bacterial isolates to show plaques, clindamycin was added to the soft agar overlay.

S. aureus ATCC51650 [6] = experiment: Phage replication by titer; type: cell-based, Staphylococcus aureus; conditions: 48 hours incubation
Description: as §4, §5

S. aureus CI11 [7] = experiment: Phage replication by titer; type: cell-based, Staphylococcus aureus; conditions: 48 hours incubation
Description: as §4, §5

CCC[C@@H]1C[C@@H](C(=O)N[C@@H]([C@H]2O[C@H](SC)[C@H](O)[C@@H](O)[C@H]2O)[C@H](C)Cl)N(C)C1 [clindamycin]
reduction of clindamycin concentration required to significantly reduce biofilm viability by combination with phage [1]: five | minimal effective concentration ([1]; Staphylococcus aureus, ATCC51650, 24 hours treatment, lower concentrations no significant effect, read-out: clindamycin alone: concentration significantly reducing viability of preformed biofilms): ≥ 0.5 µg/mL | growth of S. aureus bacteria vs control, single agent [2]: similar | lowest effective concentration of clindamycin required to facilitate phage J-Sa36 killing [3]: 0.025 µg/mL | MIC (S. aureus C285): 0.2 mg/L (≈ 0.471 µM) | MIC (S. aureus ATCC25923): 0.2 mg/L (≈ 0.471 µM) | MIC (S. aureus C330): 0.2 mg/L (≈ 0.471 µM) | MIC (S. aureus C43): 0.2 mg/L (≈ 0.471 µM) | MIC (S. aureus C319): 0.2 mg/L (≈ 0.471 µM) | synergistic effects with phage J-Sa36, Sa83 and Sa87 on bacterial viability (OD600) (S. aureus CI3): synergistic effects | MIC (S. aureus ATCC51650 [4]): 0.2 mg/L (≈ 0.471 µM) | MIC (S. aureus CI11 [5]): 0.2 mg/L (≈ 0.471 µM) | plaques from supernatant after ½ MIC clindamycin only (S. aureus CI8): produced no plaques | plaques from supernatant after ½ MIC clindamycin only (S. aureus ATCC51650 [6]): produced no plaques | plaques from supernatant after ½ MIC clindamycin only (S. aureus CI11 [7]): produced no plaques
